The values below come from publication PMC4279163, “Inhibitory Effect of b-AP15 on the 20S Proteasome” (Biomolecules, 2014).

Assay [1] deals with multiple myeloma. Also noted: method as in PMID 24319254. As to conditions: human xenograft mouse model; cited from earlier work.
For assay [2], the target named is T1, human 20S proteasome, caspase-like activity (Homo sapiens, UniProt P28072).
T1 construct: purchased Calbiochem
The assay is described as follows: 20S proteasome assay, caspase-like activity ((Z)-LLEbNA). It is filed as biochemical. The procedure:
(§1) Proteasome assay kits were purchased from Calbiochem, San Diego, CA. The effect of the proteasome inhibitors on the 20S proteasome activities was assayed following the protocols provided by the manufacturer. The major components of the assay mixture are the human 20S proteasome, fluorogenic peptide substrates and a proteasome activator. […] The concentrations of the proteasome activators used, PA28, PALAME, and SDS were 2 μg/mL, 19 μM, and 0.03% (V/V), respectively.
(§2) The trypsin-like and caspase-like activities of the 20S proteasome were determined using the fluorogenic substrates Bz-VGR-AMC (20 μM) and (Z)-LLEbNA (20 μM), respectively. Fluorescence generated from the proteolytic reaction in the presence of various concentrations of the inhibitors was measured using a BioTek fluorometer. […] The value of IC50 is expressed as mean ± standard deviation from three independent assays using CalcuSyn (Biosoft, Cambridge, UK).

Assay [3] addresses T2, 20S proteasome, chymotrypsin-like activity (Homo sapiens, UniProt P28074). The assay is described as follows: HPLC analysis of the substrates and products of the 20S proteasome. It counts as biochemical. As to conditions: 0, 2.4, 9.6, 38 μM; PA28 11 μg/mL; 6 h, room temperature. The text has this: b-AP15 is highly chromogenic with a conjugated π-bonding system that could potentially be quenching the emitted fluorescence from proteasome cleavage of the substrate. To eliminate the possible effect of quenching by b-AP15, we used HPLC to analyze the substrate and cleaved products, AMC (P1) and Suc-LLVY (P2), after the enzyme reactions. The ratio of P/S was used to express the relative amount of reaction product formation under the assay conditions, where P represents the products and S represents the substrate Suc-LLVY-AMC (S). […]
Figure 3 Inhibition of the chymotrypsin-like activity of the 20S proteasome. The reaction products of the 20S proteasome, AMC (P1), Suc-LLVY (P2), and substrate Suc-LLVY-AMC (S) were analyzed by HPLC. P1/S and P2/S are the ratios of the reaction products and the substrate calculated from the area under the curve of the HPLC profiles.
b-AP15 at various concentrations (0, 2.4, 9.6, and 38 μM) was incubated with the 20S proteasome (4.3 nM), substrate (Suc-LLVY-AMC, 0.2 mM), and PA28 (11 μg/mL) at room temperature for 6 h. […] The reaction products, AMC (P1), Suc-LLVY (P2), and substrate Suc-LLVY-AMC (S) in the filtrate were analyzed using reverse phase HPLC with a gradient of increasing acetonitrile/water ratio. […]

Assay [4] has as its system 20S proteasome. Also noted: method as in PMID 22057347. As to conditions: 50 μM; SDS as activator; cited from earlier work.
Assay [5] addresses T3, human 19S regulatory particles (Homo sapiens, UniProt P54578+Q9Y5K5).
T3 construct: purchased Boston Biochem
Nature of the assay: 19S regulatory particle de-ubiquitinase assay (ub-AMC). It is filed as biochemical. Particulars: 19S 2.9 nM; ub-AMC 1 μM; read-out: IC50, deubiquitinase activities of the 19S regulatory particles. As for the experimental part:
Figure 2 (a) b-AP15 inhibited the 19S regulatory particles. The activity of human 19S regulatory particles (Boston Biochem) was determined in the presence of the fluorogenic substrate ub-AMC and various concentrations of b-AP15 as indicated using a reported assay condition. RFU denotes the relative fluorescence units of the reactions; (b) Inhibitory effect of b-AP15 on the chymotrypsin-like activity of the 20S proteasome. BG in the figure denotes background.
The de-ubiquitinase activities of the human 19S regulatory particles (proteasome) (Boston Biochem, Boston, MA, USA) were determined in the presence of the fluorogenic substrate ub-AMC (Boston Biochem) and various concentrations of b-AP15 using the reported assay condition. The reaction buffer used contained 25 mM HEPES, 50 mM NaCl, 10 mM MgCl2, 2 mM ATP, and 1 mM DDT. The human 19S regulatory particles and the substrate ub-AMC were used at a final concentration of 2.9 nM, and 1 μM, respectively. The proteolysis reaction rate was monitored using a BioTek fluorometer (Winooski, VT, USA).

Assay [6] has as its target T4, human 20S proteasome, trypsin-like activity (Homo sapiens, UniProt Q99436).
T4 construct: purchased Calbiochem
Nature of the assay: 20S proteasome assay, trypsin-like activity (Bz-VGR-AMC). It is filed as biochemical. Particulars: activator PA28; Bz-VGR-AMC 20 μM; read-out: IC50, trypsin-like activity of PA28-activated 20S proteasome. As for the experimental part:
as §1, §2

For assay [7], the system named is MelJuSo Ub-YFP reporter cell line. Also noted: method as in PMID 22057347. Particulars: MelJuSo Ub-YFP cells; cited from earlier work.
Assay [8] concerns 19S regulatory particle. Also noted: method as in PMID 22057347. Particulars: 50 μM; cited from earlier work.
For assay [9], the system named is proteasome of HeLa Ub^G76V-GFP cells. Nature of the assay: Cell-based proteasome inhibition assay (Ub-GFP accumulation). Particulars: 24 h. As for the experimental part:
It was shown that b-AP15 at 50 μM inhibited the deubiquitination by the 19S regulatory particle, but not the 20S proteasome in in vitro enzymatic assays. […] HeLa Ub^G76V-GFP cells express ubiquitin-green fluorescent protein (Ub-GFP), which is efficiently degraded by the proteasome. HeLa Ub^G76V-GFP cells accumulate Ub-GFP in the presence of proteasome inhibitors. […] Some of the HeLa Ub^G76V-GFP cells turned green in the presence of b-AP15 at a concentration as low as 0.32 μM (Figure 1b). […] Ub-YFP was accumulated in the MelJuSo Ub-YFP cells at a b-AP15 concentration as low as 0.7 μM [12].
Figure 1 b-AP15 inhibited the proteasome of HeLa ubiquitin-green fluorescent protein (Ub^G76V-GFP) cells. HeLa Ub^G76V-GFP cells were treated with b-AP15 at 0.95 μM (a,d); 0.32 μM (b,e), or no b-AP15 (c,f) for 24 h, where (a), (b), and (c) are fluorescence microscopic images; (d), (e), and (f) are regular phase contrast images of the cells.
HeLa Ub^G76V-GFP cells (kindly provided by Nico P. Dantuma, Karolinska Institutet, Stockholm, Sweden) were cultured in DMEM medium supplemented with 10% fetal calf serum, 100 units/mL of penicillin, and 100 µg/mL of streptomycin. […] The green fluorescence emitted by the treated HeLa Ub^G76V-GFP cells was then observed and documented with a Nikon fluorescent microscopic system.

Assay [10] addresses T2, 20S proteasome, chymotrypsin-like activity. Nature of the assay: 20S proteasome assay, chymotrypsin-like activity (Suc-LLVY-AMC). It is filed as biochemical. Also noted: purchased Calbiochem. As to conditions: for IC50: Suc-LLVY-AMC 20 μM, mean ± SD, three assays. As for the experimental part:
as §1, §2

Several values for one entry are separate records, joined by “and”; a condition that tells them apart may be missing. Equal entries are not always repeated. Where two headings read alike, the source gives them in different places.

In the case of `C=CC(=O)N1C/C(=C\c2ccc([N+](=O)[O-])cc2)C(=O)/C(=C/c2ccc([N+](=O)[O-])cc2)C1` [b-AP15], in assay [1], the Anti-multiple myeloma activity result was “anti-multiple myeloma activity”. In addition, the IC50 (usually the point on the concentration scale where inhibition reaches its midpoint) in assay [2] (activator PA28, (Z)-LLEbNA 20 μM, read-out: IC50, caspase-like activity of PA28-activated 20S proteasome) was over 48 µM; in [5], 15.2 µM; in [6], 40.6 ± 5.23 µM; in assay [10] (activator PA28 2 μg/mL, read-out: IC50, chymotrypsin-like activity of the 20S proteasome activated by PA28) it was 18.1 ± 3.22 µM; in [10] (activator PALAME 19 μM, read-out: IC50, chymotrypsin-like activity of the 20S proteasome activated by PALAME) it was 26 µM and 26.3 µM; in assay [10] (activator SDS 0.03%, read-out: IC50, chymotrypsin-like activity of the 20S proteasome activated by SDS), over 48 µM. The “Effect on the caspase-like activity” value in assay [2] (up to 48 μM, PA28-activated) was “did not significantly affect”. Moreover, the “Formation of the two cleaved products AMC (P1) and Suc-LLVY (P2) by HPLC” value in assay [3] is “inhibited the formation of the two cleaved products in a dose dependent manner”. Besides, the “Inhibition of the 20S proteasome” value in assay [4] is given as “did not inhibit”. For the same molecule, the “Lowest concentration at which Ub-YFP was accumulated” value in assay [7] is 0.7 µM. Further, in [8], the “Inhibition of deubiquitination by the 19S regulatory particle” value was “inhibited”. Also, the “Accumulation of Ub^G76V-GFP and/or GFP in cells” value in assay [9] (0.95 μM) is recorded as “accumulation of Ub^G76V-GFP and/or GFP in majority of the cells”. Further, the “Lowest concentration at which some cells turned green” value in [9] (fluorescence microscopy) stood at 0.32 µM. Besides, the inhibition – broadly, the percentage by which the read-out fell short of the control – at 48 µM in assay [10] (48 μM, 0.03% SDS as activator, read-out: Inhibition of the chymotrypsin-like activity of the SDS-activated 20S proteasome) was under 50%.
